Several values for one entry are separate records, joined by “and”; a condition that tells them apart may be missing. Equal values may be shown once. Marks after values point to notes of the source that are not given here. Values belong to the compound of their own block, whether it stands above or below them.
What was measured:
[1] = Visual observations of luliconazole solubility samples (crystals / clear solution); assay type: physicochemical; details: for concentration at which luliconazole was completely soluble (visual observations): pilot studies
Method: (§1) Typically, luliconazole was weighed into a screw-cap glass vial, the desired solvent was added and the vial was tightly closed. The vials containing suspension were sonicated in an ultra-sonicator bath at 40° C. for 20-30 seconds; the vials were taken out of the bath and swirled to mix the contents. The sonication and swirling steps were repeated 3-4 times till most of the luliconazole was dissolved. […] The samples were stored at RT (21.5° C.,±1.5) and at 4° C. in tightly closed screw-cap glass vials. Sample preparation was conducted in a dark room under yellow light and samples were protected from light during storage.

[2] = Solubility of luliconazole in solvents and model formulations by UV spectrophotometer at 296 nm, 4° C. and RT (21.5° C., ±1.5); assay type: physicochemical
Method: as §1
Solubility was determined after 24 hours and again after 3 days at respective storage conditions (RT and 4° C.) using a UV spectrophotometer (Pharma Spec 1700; Shimadzu). Samples for quantitative determination of solubility were drawn from the supernatant area of the suspension (solution) into a 3 ml syringe with a 0.1 μm (pore size) syringe filter (nylon, 13 mm) attached. The desired amount of solution was delivered into a 100 ml volumetric flask that was immediately closed tightly with a stopper and weighed accurately to determine the exact weight of the solution. As ethyl acetate is incompatible with the plastic in the syringe and the housing of the syringe-filter, the ethyl acetate solution was centrifuged at 4200 rpm for 5 minutes and the supernatant solution was drawn for analysis using a glass Pasteur pipette.
The samples taken in volumetric flasks were diluted with methanol to the mark and diluted further before analyzing on the UV spectrophotometer. A five point standard curve of luliconazole (at 20, 10, 6, 4 and 2 μg/ml) in methanol was determined by reading the absorbance at 296 nm. The samples were also read at 296 nm and the concentration of luliconazole was determined from the equation of the standard curve. The solubility of luliconazole in respective solvents and model formulations was then determined as % wt/wt.
Solubility was calculated as % wt/wt from the UV spectrophotometric data read at 296 nm.

[3] = tested on: genus Candida; test: In vitro antifungal activity (MIC) against the genus Candida; assay type: cell-based
Method: (§2) The antifungal activities of luliconazole, the Z form of luliconazole, and the SE form of luliconazole were determined. The compounds were tested against the genus Trichophyton and the genus Candida. The MICs against Trichophyton were 15-250 times higher for the Z form and 120-1000 times higher for the S-E form than for luliconazole. The MICs against the genus Candida were 4-500 times higher for the Z form and 8-1000 times higher for the S-E form than for luliconazole.

[4] = tested on: genus Trichophyton; test: In vitro antifungal activity (MIC) against the genus Trichophyton; assay type: cell-based
Method: as §2

[5] = cited from earlier work
[6] = tested on: Trichophyton rubrum, Trichophyton mentagrophytes and Trichophyton tonsurans; details: versus terbinafine, liranaftate, butenafine, amorolfine, ketoconazole, clotrimazole, neticonazole, miconazole, bifonazole; cited from earlier work
[7] = tested on: onychomycosis; details: onychomycosis of the toenail; package insert; cited from earlier work
[8] = in Benzyl alcohol (theoretical 40%; #853-38-13)
[9] = in Ethanol (theoretical 3.5%; #853-38-15)
[10] = in Ethyl acetate (theoretical 6.5%; #853-38-12)
[11] = in Transcutol P (theoretical 15%; #853-38-17)
[12] = in Acetone (theoretical 18%; #853-38-14)

visual observations at 3 days/4° C. [1, 8]: clear solution
visual observations at 3 days/RT [1, 8]: clear solution
visual observations at 3 days/RT [1, 9]: clear solution
visual observations at 3 days/4° C. [1, 10]: clear solution
visual observations at 3 days/RT [1, 10]: clear solution
visual observations at 3 days/4° C. [1, 11]: clear solution
visual observations at 3 days/RT [1, 11]: clear solution
concentration at which luliconazole was completely soluble (visual observations) ([1]; in Transcutol P): ~15%
concentration at which luliconazole was completely soluble (visual observations) ([1]; in benzyl alcohol): ~40%
Solubility wt/wt % 4° C. 24 hr [2, 12]: 13.1 % wt/wt
Solubility wt/wt % 4° C. 3 days [2, 12]: 12 % wt/wt and 12.49 % wt/wt
Solubility wt/wt % RT 24 hr ([2]; in Acetone (theoretical 18%; #853-38-14), average duplicate sample preparations): 17.67* % wt/wt
Solubility wt/wt % RT 3 days ([2]; in Benzyl alcohol (50%; saturated solution; #802-24-01)): 43 % wt/wt and 43.44 % wt/wt
Solubility wt/wt % 4° C. 24 hr [2, 8]: 39.87 % wt/wt
Solubility wt/wt % 4° C. 3 days [2, 8]: 40 % wt/wt and 39.18 % wt/wt
Solubility wt/wt % RT 24 hr [2, 8]: 40.19 % wt/wt
Solubility wt/wt % RT 3 days ([2]; in Benzyl alcohol (theoretical 40%; #853-38-13), average duplicate sample preparations): 40 % wt/wt and 39.91* % wt/wt
Solubility wt/wt % 4° C. 24 hr [2, 9]: 2.67 % wt/wt
Solubility wt/wt % 4° C. 3 days [2, 9]: 2.3 % wt/wt
Solubility wt/wt % RT 24 hr [2, 9]: 3.51 % wt/wt
Solubility wt/wt % 4° C. 24 hr [2, 10]: 6.14 % wt/wt
Solubility wt/wt % RT 24 hr ([2]; in Ethyl acetate (theoretical 6.5%; #853-38-12), average duplicate sample preparations): 6.58* % wt/wt
Solubility wt/wt % RT 24 hr ([2]; in Isopropyl myristate (theoretical 5%; #853-38-10)): 0.4 % wt/wt and 0.41 % wt/wt
Solubility wt/wt % RT 24 hr ([2]; in Propylene carbonate (theoretical 10%; #853-38-11)): 8.98 % wt/wt
Solubility wt/wt % 4° C. 3 days [2, 11]: 14.78 % wt/wt
Solubility wt/wt % RT 24 hr [2, 11]: 15.12 % wt/wt
Solubility wt/wt % RT 3 days [2, 11]: 14.89 % wt/wt
MIC Range ([3]; C. albicans (6 strains)): 30 to 250 ng/mL
MIC Range ([3]; C. glabrata (5 strains)): ≦0.0080-0.030 μg/mL
MIC Range ([4]; T. mentagrophytes (4 strains)): 1 to 2 ng/mL
MIC Range ([4]; T. rubrum (4 strains)): 0.24 to 0.5 ng/mL
SMILES: N#C/C(=C1/SC[C@@H](c2ccc(Cl)cc2Cl)S1)n1ccnc1 [luliconazole, (−)-(E)-[(4R)-(2,4-dichlorophenyl)-1,3-dithiolan-2-ylidene](1H-imidazol-1-yl)acetonitrile]
solubility in water [5]: practically insoluble in water
potency compared with reference drugs [6]: greater potency

SMILES: CN(C/C=C/C#CC(C)(C)C)Cc1cccc2ccccc12 [terbinafine]
patients with both mycological cure and clinical cure [7]: 38%
